Assay results published in ChEMBL document CHEMBL3792319, “Synthesis and antitubercular activity of 1,2,4-trisubstitued piperazines” (Bioorg Med Chem Lett, 2016).
Values after ≈ are worked out from the molar mass of the structure shown.

Assays:
[1] = system: Mycobacterium tuberculosis; experiment: Antitubercular activity against Mycobacterium tuberculosis H37Rv measured after 7 days under aerobic condition; assay type: functional, organism-based; settings: 168 h
[2] = system: Mycobacterium tuberculosis; experiment: Antimicrobial activity against Mycobacterium tuberculosis H37Rv expressing bacterial luciferase measured after 10 days under hypoxia condition by LORA assay; assay type: functional; settings: 240 h
[3] = system: Mycobacterium tuberculosis; experiment: Antitubercular activity against Mycobacterium tuberculosis H37Rv measured after 5 days under aerobic condition by two-fold serial dilution method; assay type: functional; settings: 120 h
[4] = system: Mycobacterium tuberculosis; experiment: Bactericidal activity against Mycobacterium tuberculosis H37Rv measured upto 21 days; assay type: functional; settings: 504 h
[5] = system: Mycobacterium tuberculosis; experiment: Antitubercular activity against Mycobacterium tuberculosis H37Rv expressing bacterial luciferase infected murine J774 macrophage cells assessed as reduction in cell count at 20 uM measured after 4 days by luminescence analysis; assay type: functional
[6] = system: Mycobacterium tuberculosis; experiment: Antitubercular activity against Mycobacterium tuberculosis H37Rv expressing bacterial luciferase infected murine J774 macrophage cells assessed as reduction in cell count at 200 uM measured after 4 days by luminescence analysis; assay type: functional

Compound	IC50 [1] [µM]	IC90 [1] [µM]	MIC [1] [µM]	MIC [2] [µM]	MIC [3] [µM]	MBC [4] [µM]	Activity [5] [log10CFU]	Activity [6] [log10CFU]
CCC(C)[C@@H]1CN([C@H](CNC)Cc2ccccc2)CCN1CCC12CC3CC(CC(C3)C1)C2 (stereo partly drawn)	20.2	35.5	50 (≈ 22.6 µg/mL)	–	–	–	–	–
CCCC[C@H](CNC)N1CCN(CCC23CC4CC(CC(C4)C2)C3)[C@H](C(C)C)C1	47.5	65.5	100 (≈ 40.4 µg/mL)	–	–	–	–	–
CCC(C)[C@H](CNC)N1CCN(CCc2c[nH]c3ccccc23)[C@H](C(C)C)C1 (stereo partly drawn)	–	> 100	> 100	–	–	–	–	–
CNC[C@H](Cc1ccccc1)N1CCN(CCc2c[nH]c3ccccc23)[C@H](C(C)C)C1	–	88.1	> 100	–	–	–	–	–
CCCC[C@@H](CNC)N1CCN(CCc2c[nH]c3ccccc23)[C@H](C(C)C)C1	–	85.3	> 100	–	–	–	–	–
CCC(C)[C@@H](CNC)N1CCN(CCc2ccc(C)cc2)CC1 (stereo partly drawn)	37	110	93.9 (≈ 29.8 µg/mL)	–	–	–	–	–
CCCC[C@@H](CNC)N1CCN(CCC23CC4CC(CC(C4)C2)C3)[C@H](C(C)C)C1	51.8	61.4	100 (≈ 40.4 µg/mL)	–	–	–	–	–
CCC(C)[C@H](CNC)N1CCN(CCC23CC4CC(CC(C4)C2)C3)[C@H](CO)C1 (stereo partly drawn)	–	> 100	> 100	–	–	–	–	–
CNC[C@@H](Cc1ccccc1)N1CCN(CCC23CC4CC(CC(C4)C2)C3)[C@H](CO)C1	–	75.6	> 100	–	–	–	–	–
CNCCN1CCN(CCC23CC4CC(CC(C4)C2)C3)[C@H](C(C)C)C1	–	> 100	> 100	–	–	–	–	–
CNC[C@@H](CO)N1CCN(CCc2ccc(C)cc2)[C@H](CC2CCCCC2)C1	67	160	200 (≈ 77.5 µg/mL)	–	–	–	–	–
CCC(C)[C@@H]1CN([C@@H](CNC)Cc2ccccc2)CCN1CCC12CC3CC(CC(C3)C1)C2 (stereo partly drawn)	17	38	37.7 (≈ 17 µg/mL)	9.8 (≈ 4.43 µg/mL)	41 (≈ 18.5 µg/mL)	5 (≈ 2.26 µg/mL)	2.4	2.4
CC[C@H](C)[C@@H]1CN([C@@H](CNC)Cc2ccccc2)CCN1CC(C)(C)C	190	> 200	> 200	–	–	–	–	–
CNC[C@@H](Cc1ccccc1)N1CCN(CCC23CC4CC(CC(C4)C2)C3)[C@H](C(C)C)C1	20.7	37	50 (≈ 21.9 µg/mL)	52.2 (≈ 22.8 µg/mL)	14 (≈ 6.13 µg/mL)	114 (≈ 49.9 µg/mL)	2.22	–
CNC[C@@H](Cc1ccccc1)N1CCN(CC2CCC(C)CC2)[C@H](C(C)C)C1 (stereo partly drawn)	–	85.5	> 100	–	–	–	–	–
CNC[C@@H](CC(C)C)N1CCN(CCc2ccc(C)cc2)CC1	> 200	> 200	> 200	–	–	–	–	–
CCCC[C@@H](CNC)N1CCN(CCC23CC4CC(CC(C4)C2)C3)[C@H](CO)C1	–	70.6	> 100	–	–	–	–	–
CNC[C@@H](Cc1ccccc1)N1CCN(CCC23CC4CC(CC(C4)C2)C3)CC1	38	99	61.2 (≈ 24.2 µg/mL)	74 (≈ 29.3 µg/mL)	36 (≈ 14.2 µg/mL)	100 (≈ 39.6 µg/mL)	0	2.7
CCCC[C@@H](CNC)N1CCN(CCC23CC4CC(CC(C4)C2)C3)[C@H](C(C)CC)C1 (stereo partly drawn)	29.6	54.2	100 (≈ 41.8 µg/mL)	–	–	–	–	–
CNC[C@@H](Cc1ccccc1)N1CCN(CCC(c2ccccc2)c2ccccc2)CC1	23	> 61	52.3 (≈ 22.4 µg/mL)	> 200	69 (≈ 29.5 µg/mL)	20 (≈ 8.55 µg/mL)	2.4	2.4
CCC(C)[C@H](CNC)N1CCN(CCC23CC4CC(CC(C4)C2)C3)[C@H](C(C)C)C1 (stereo partly drawn)	37.4	99.5	100 (≈ 40.4 µg/mL)	–	–	–	–	–
CCCC[C@H](CNC)N1CCN(CCC23CC4CC(CC(C4)C2)C3)[C@H](C(C)CC)C1 (stereo partly drawn)	21.2	33.7	50 (≈ 20.9 µg/mL)	–	–	–	–	–
CNC[C@@H](CO)N1CCN(CCC(c2ccccc2)c2ccccc2)[C@H](CC2CCCCC2)C1	22	50	48.4 (≈ 22.4 µg/mL)	–	–	–	–	–
CNC[C@H](Cc1ccccc1)N1CCN(CCC23CC4CC(CC(C4)C2)C3)[C@H](CO)C1	54.6	66.1	100 (≈ 42.6 µg/mL)	–	–	–	–	–
